The structures appear in SMILES notation.

Experiment in all cases: Method 1: intracellular Ca2+ release (FLIPR, Calcium 5) in recombinant CHO-K1 cells
Assay type in all cases: cell-based

For assay [1], the target named is T1, human S1PR5 receptor (Homo sapiens, UniProt Q9H228).
T1 construct: host or cells: CHO-K1
The note with it: agonist potency, determined with method 1 (symbols A-D); read-out: S1P5 EC50 range. The protocol: (§1) Agonistic activity was measured using two different methods, described below.
(§2) Method 1. Intracellular Ca^2+ Release
(§3) Agonist potency and intrinsic activity was assessed by measurement of intracellular Ca^2+ release. Recombinant CHO-K1 cells (Euroscreen, Brussels, Belgium) expressing human S1PR5, S1PR1, S1PR3 or S1PR4 receptors, aequorin, and GTP binding protein Gq/i5 were cultured using a medium containing nutrient mixture F-12 Ham (Sigma-Aldrich) with 10% FBS, and 100 μg/mL gentamicin and equilibrated at 5% CO2.
(§4) 15.000 cells in 20 μL medium were seeded into Biocoat poly-D-Lysine coated 384 well plates (Becton Dickinson #35-6663) and grown to 95% confluency after 24 h.
(§5) Culture medium was replaced by an assay buffer consisting of HBBS with Ca^2+ and Mg^2+ (Invitrogen #14025-050), 20 mmol/L Hepes (Sigma-Aldrich #H-3375), 2.5 mmol/L probenecid (Sigma-Aldrich #P-8761, and 0.1% BSA (Sigma-Aldrich #A-7030) pH 7.4. The Calcium 5 no-wash FLIPR assay kit (Molecular Devices #5000625) was performed as described in the kit instructions. Cells were incubated with Calcium 5 dye for 1 h at 37° C., 5% CO2 in the dark. After 45 min adaptation to RT assessment of agonist stimulation of intracellular Ca^2+ release was performed by addition of test compounds at concentrations obtained by serial dilution. Phospho-fingolimod was used as positive control. Antagonists were pre-incubated for 10 min with cells before addition of the agonist (phospho-fingolimod at EC80). Measurements were performed using a fluorometric imaging plate reader FLIPR® tetra (Molecular Devices). Agonist at the human S1P receptors were characterized by deducing EC50 (potency) values from a nonlinear fit to the measured fluorescence raw data after normalization to the reference agonist (phospho-fingolimod) curve.

In assay [2] the target is T2, human S1PR1 receptor (Homo sapiens, UniProt P21453).
T2 construct: host or cells: CHO-K1
The note with it: (1): determined with method 1; read-out: S1P1 EC50. Here is the method: as §1, §2, §3, §4, §5

For assay [3], the target named is T3, human S1PR3 receptor (Homo sapiens, UniProt Q99500).
T3 construct: host or cells: CHO-K1
The note with it: (1): determined with method 1; read-out: S1P3 EC50. The protocol: as §1, §2, §3, §4, §5

T3 sequence (Q99500 whole entry): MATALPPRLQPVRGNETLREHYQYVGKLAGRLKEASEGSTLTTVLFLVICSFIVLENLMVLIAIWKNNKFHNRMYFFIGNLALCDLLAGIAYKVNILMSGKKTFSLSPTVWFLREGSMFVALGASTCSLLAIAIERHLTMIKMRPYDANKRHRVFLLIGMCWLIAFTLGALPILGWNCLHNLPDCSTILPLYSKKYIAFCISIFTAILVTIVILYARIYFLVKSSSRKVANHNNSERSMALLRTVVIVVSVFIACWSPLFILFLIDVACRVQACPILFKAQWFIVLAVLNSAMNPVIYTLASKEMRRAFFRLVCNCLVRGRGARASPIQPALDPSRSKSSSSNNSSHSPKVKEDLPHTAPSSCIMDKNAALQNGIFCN
T2 sequence (P21453 whole entry): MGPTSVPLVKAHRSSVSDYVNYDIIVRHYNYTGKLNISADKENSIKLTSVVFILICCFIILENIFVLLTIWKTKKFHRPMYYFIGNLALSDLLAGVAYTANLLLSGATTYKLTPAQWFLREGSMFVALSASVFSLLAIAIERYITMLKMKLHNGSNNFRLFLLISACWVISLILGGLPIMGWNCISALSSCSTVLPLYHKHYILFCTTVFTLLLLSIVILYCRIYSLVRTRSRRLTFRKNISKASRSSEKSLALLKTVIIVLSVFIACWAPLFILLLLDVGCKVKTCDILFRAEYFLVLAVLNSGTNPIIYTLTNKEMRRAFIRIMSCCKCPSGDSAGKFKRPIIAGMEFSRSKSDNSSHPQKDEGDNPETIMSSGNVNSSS
T1 sequence (Q9H228 whole entry): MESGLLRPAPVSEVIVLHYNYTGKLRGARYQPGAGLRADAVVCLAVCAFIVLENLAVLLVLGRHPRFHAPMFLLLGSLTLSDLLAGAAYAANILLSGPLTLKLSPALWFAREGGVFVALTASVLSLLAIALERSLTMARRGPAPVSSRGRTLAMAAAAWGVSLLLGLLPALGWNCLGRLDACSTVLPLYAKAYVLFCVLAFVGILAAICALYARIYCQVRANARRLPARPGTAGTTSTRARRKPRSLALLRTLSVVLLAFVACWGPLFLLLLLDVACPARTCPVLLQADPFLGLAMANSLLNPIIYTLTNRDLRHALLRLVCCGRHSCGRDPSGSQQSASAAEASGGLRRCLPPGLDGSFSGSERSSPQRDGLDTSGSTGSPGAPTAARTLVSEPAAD

Take `Cc1ccc(C(F)(F)F)c(COc2ccc(-c3ncc4c(n3)CCN(CCC(=O)O)C4)cc2)c1` [Compound 91, 3-(2-(4-((5-methyl-2-(trifluoromethyl)benzyl)oxy)phenyl)-7,8-dihydropyrido[4,3-d]pyrimidin-6(5H)-yl)propanoic acid]: the 50% effective concentration (EC50) (commonly the concentration needed to bring the measured effect to its halfway point) in assay [1] was 100 to 1000 nM; in assay [2], over 1000 nM; in assay [3], over 1000 nM.
Turning to `O=C(O)CCN1CCc2nc(-c3ccc(OCc4cccc(OC(F)F)c4)cc3)ncc2C1` [Compound 92, 3-(2-(4-((3-(difluoromethoxy)benzyl)oxy)phenyl)-7,8-dihydropyrido[4,3-d]pyrimidin-6(5H)-yl)propanoic acid], the values for the EC50 in assay [1], in assay [2] and in assay [3] were 10 to 100 nM, over 1000 nM and over 1000 nM, respectively.
For the molecule `Cc1cc(OC(F)(F)F)ccc1COc1ccc(-c2ncc3c(n2)CCN(CCC(=O)O)C3)cc1` [Compound 93, 3-(2-(4-((2-methyl-4-(trifluoromethoxy)benzyl)oxy)phenyl)-7,8-dihydropyrido[4,3-d]pyrimidin-6(5H)-yl)propanoic acid], the values for the EC50 in assay [1], in assay [2] and in assay [3] were under 10 nM, under 1000 nM and over 1000 nM, respectively.
For the molecule `Cc1c(COc2ccc(-c3ncc4c(n3)CCN(CCC(=O)O)C4)cc2)cccc1C(F)(F)F` [Compound 94, 3-(2-(4-((2-methyl-3-(trifluoromethyl)benzyl)oxy)phenyl)-7,8-dihydropyrido[4,3-d]pyrimidin-6(5H)-yl)propanoic acid], the EC50 in assay [1] was under 10 nM; in assay [2] it was under 1000 nM; in assay [3] it was over 1000 nM.
Regarding `Cc1cc(COc2ccc(-c3ncc4c(n3)CCN(CCC(=O)O)C4)cc2)cc(OC(F)(F)F)c1` [Compound 95, 3-(2-(4-((3-methyl-5-(trifluoromethoxy)benzyl)oxy)phenyl)-7,8-dihydropyrido[4,3-d]pyrimidin-6(5H)-yl)propanoic acid], the results for the EC50 in assay [1], in assay [2] and in assay [3] were under 10 nM, under 1000 nM and over 1000 nM, respectively.
With `O=C(O)CCCN1Cc2cnc(-c3ccc(OCc4ccccc4)cc3)nc2C1` [Compound 99, 4-(2-(4-(benzyloxy)phenyl)-5H-pyrrolo[3,4-d]pyrimidin-6(7H)-yl)butanoic acid], the results for the EC50 in assay [1], in assay [2] and in assay [3] were 1000 to 10000 nM, over 1000 nM and over 1000 nM, respectively.
As to `O=C(O)CCN1Cc2cnc(-c3ccc(OCc4ccccc4)cc3)nc2C1` [Compound 100, 3-(2-(4-(benzyloxy)phenyl)-5H-pyrrolo[3,4-d]pyrimidin-6(7H)-yl)propanoic acid], the EC50 in assay [1] was 1000 to 10000 nM; in assay [2] it was over 1000 nM; in assay [3] it was over 1000 nM.
For the molecule `CC(CN1CCc2nc(-c3ccc(OCc4ccccc4)cc3F)ccc2C1)C(=O)O` (stereo not drawn) [Compound 102, 3-(2-(4-(benzyloxy)-2-fluorophenyl)-7,8-dihydro-1,6-naphthyridin-6(5H)-yl)-2-methylpropanoic acid], the results for the EC50 in assay [1], in assay [2] and in assay [3] were 10 to 100 nM, under 1000 nM and over 1000 nM, respectively.
Taken in the same sequence, the figures for `CC(CN1CCc2nc(-c3ccc(OCc4ccccc4)c(F)c3)ccc2C1)C(=O)O` (stereo not drawn) [Compound 103, 3-(2-(4-(benzyloxy)-3-fluorophenyl)-7,8-dihydro-1,6-naphthyridin-6(5H)-yl)-2-methylpropanoic acid] were 10 to 100 nM, over 1000 nM and over 1000 nM.
Regarding `CC(CN1CCc2nc(-c3ccc(OCc4ccc(F)cc4)c(Cl)c3)ccc2C1)C(=O)O` (stereo not drawn) [Compound 104, 3-(2-(4-((4-fluorobenzyl)oxy)-3-chlorophenyl)-7,8-dihydro-1,6-naphthyridin-6(5H)-yl)-2-methylpropanoic acid], the results for the EC50 in assay [1], in assay [2] and in assay [3] were 10 to 100 nM, over 1000 nM and over 1000 nM, respectively.
As for `CC(CN1CCc2nc(-c3ccc(OCc4ccccc4F)c(Cl)c3)ccc2C1)C(=O)O` (stereo not drawn) [Compound 105, 3-(2-(4-((2-fluorobenzyl)oxy)-3-chlorophenyl)-7,8-dihydro-1,6-naphthyridin-6(5H)-yl)-2-methylpropanoic acid], the EC50 in assay [1] was 100 to 1000 nM; in assay [2], over 1000 nM; in assay [3], over 1000 nM.
For `CC(CN1CCc2nc(-c3ccc(OCc4ccccc4)c(Cl)c3)ccc2C1)C(=O)O` (stereo not drawn) [Compound 106, 3-(2-(4-(benzyloxy)-3-chlorophenyl)-7,8-dihydro-1,6-naphthyridin-6(5H)-yl)-2-methylpropanoic acid], the concentration giving a half-maximal response (EC50) is 10 to 100 nM in assay [1], over 1000 nM in assay [2] and over 1000 nM in assay [3].
On to `CC(CN1CCc2nc(-c3cccc(OCc4ccccc4)c3)ccc2C1)C(=O)O` (stereo not drawn) [Compound 107], for which the values for the EC50 in assay [1], in assay [2] and in assay [3] were 1000 to 10000 nM, over 1000 nM and over 1000 nM, respectively.
Regarding `CC(CN1CCc2nc(-c3ccc(OCc4ccccc4)cc3Cl)ccc2C1)C(=O)O` (stereo not drawn) [Compound 108, 3-(2-(4-(benzyloxy)-2-chlorophenyl)-7,8-dihydro-1,6-naphthyridin-6(5H)-yl)-2-methylpropanoic acid], the EC50 in assay [1] was 100 to 1000 nM; in assay [2], over 1000 nM; in assay [3], over 1000 nM.
Turning to `CC(CN1CCc2nc(-c3ccc(OCc4cccc(F)c4)cc3)ccc2C1)C(=O)O` (stereo not drawn) [Compound 109, 3-(2-(4-((3-fluorobenzyl)oxy)phenyl)-7,8-dihydro-1,6-naphthyridin-6(5H)-yl)-2-methylpropanoic acid], the EC50 is under 10 nM in assay [1], under 1000 nM in assay [2] and over 1000 nM in assay [3].
Taken in the same sequence, the figures for `Cc1cc(-c2ccc3c(n2)CCN(CC(=O)O)C3)ccc1OCc1ccccc1` [Compound 111, 2-(2-(4-(benzyloxy)-3-methylphenyl)-7,8-dihydro-1,6-naphthyridin-6(5H)-yl)acetic acid] were 100 to 1000 nM, over 1000 nM and over 1000 nM.
With `Cc1cc(-c2ccc3c(n2)CCN(CC(=O)O)C3)ccc1OCc1ccc(C(F)(F)F)cc1` [Compound 112, 2-(2-(3-methyl-4-((4-(trifluoromethyl)benzyl)oxy)phenyl)-7,8-dihydro-1,6-naphthyridin-6(5H)-yl)acetic acid], the EC50 in assay [1] was 100 to 1000 nM; in assay [2], over 1000 nM; in assay [3] it was over 1000 nM.
As for `O=C(O)CCCN1CCc2nc(-c3ccc(OCc4ccccc4)cc3)ccc2C1` [Compound 115, 4-(2-(4-(benzyloxy)phenyl)-7,8-dihydro-1,6-naphthyridin-6(5H)-yl)butanoic acid], the EC50 in assay [1] is under 10 nM; in assay [2], over 1000 nM; in assay [3], over 1000 nM.
Turning to `O=C(O)CCCN1CCc2nc(-c3ccc(OCc4cccc(F)c4)cc3)ccc2C1` [Compound 116, 4-(2-(4-((3-fluorobenzyl)oxy)phenyl)-7,8-dihydro-1,6-naphthyridin-6(5H)-yl)butanoic acid], the EC50 in assay [1] is under 10 nM; in assay [2], over 1000 nM; in assay [3] it was over 1000 nM.
As for `Cc1cc(-c2ccc3c(n2)CCN(C2CC(C(=O)O)C2)C3)ccc1OCc1ccccc1` (stereo not drawn) [Compound 117, 3-(2-(4-(benzyloxy)-3-methylphenyl)-7,8-dihydro-1,6-naphthyridin-6(5H)-yl)cyclobutanecarboxylic acid], the EC50 is 100 to 1000 nM in assay [1], over 1000 nM in assay [2] and over 1000 nM in assay [3].
For `O=C(O)CCN1CCc2nc(-c3ccc(OCc4cccc(OC(F)(F)F)c4)cc3)ccc2C1` [Compound 151, 3-(2-(4-((3-trifluoromethoxybenzyl)oxy)phenyl)-7,8-dihydro-1,6-naphthyridin-6(5H)-yl)propanoic acid], the EC50 in assay [1] is under 10 nM; in assay [2], under 1000 nM; in assay [3] it was over 1000 nM.
As for `O=C(O)CCN1CCc2nc(-c3ccc(OCc4ccc(C(F)(F)F)cc4)cc3)ccc2C1` [Compound 152, 3-(2-(4-((4-trifluoromethylbenzyl)oxy)phenyl)-7,8-dihydro-1,6-naphthyridin-6(5H)-yl)propanoic acid], the EC50 is under 10 nM in assay [1], over 1000 nM in assay [2] and over 1000 nM in assay [3].
Take `O=C(O)CCN1CCc2nc(-c3ccc(OCc4ccc(OC(F)(F)F)cc4)cc3)ccc2C1` [Compound 153, 3-(2-(4-((4-trifluoromethoxybenzyl)oxy)phenyl)-7,8-dihydro-1,6-naphthyridin-6(5H)-yl)propanoic acid]: the EC50 in assay [1] was 100 to 1000 nM; in assay [2], over 1000 nM; in assay [3] it was over 1000 nM.
`Cc1ccc(COc2ccc(-c3ccc4c(n3)CCN(CCC(=O)O)C4)cc2)cc1C(F)(F)F` [Compound 154, 3-(2-(4-((3-trifluoromethyl-4-(methyl)benzyl)oxy)phenyl)-7,8-dihydro-1,6-naphthyridin-6(5H)-yl)propanoic acid]: the EC50 in assay [1] is 10 to 100 nM; in assay [2] it was over 1000 nM; in assay [3] it was over 1000 nM.

These data come from patent US10556907B2 (AbbVie Inc., priority 2015, dated 2020).
